Laboratory results from ChEMBL document CHEMBL4359915, “Design, synthesis and biological evaluation of novel diazaspiro[4.5]decan-1-one derivatives as potential chitin synthase inhibitors and antifungal agents” (Eur J Med Chem, 2019).
≈ marks a conversion by molar mass, not a printed value.

Assays:
[1] = Inhibition of Candida tropicalis ATCC 750 chitin synthase using UDP-GlcNAc as substrate
Candida albicans [2] = experiment: Antifungal activity against Candida albicans ATCC 90023 assessed as growth inhibition measured after 24 hrs by two-fold broth dilution method; format: functional; conditions: ATCC 90023, 24 h
Cryptococcus neoformans = experiment: Antifungal activity against Cryptococcus neoformans ATCC 32719 assessed as growth inhibition measured after 24 hrs by two-fold broth dilution method; format: functional; conditions: ATCC 32719, 24 h
Pseudomonas aeruginosa = experiment: Antibacterial activity against Pseudomonas aeruginosa ATCC 9027 assessed as growth inhibition measured after 24 hrs by two-fold broth dilution method; format: functional; conditions: ATCC 9027, 24 h
Staphylococcus aureus [3] = experiment: Antibacterial activity against methicillin-resistant Staphylococcus aureus N315 assessed as growth inhibition measured after 24 hrs by two-fold broth dilution method; format: functional; conditions: N315, 24 h
Escherichia coli = experiment: Antibacterial activity against Escherichia coli JM 109 assessed as growth inhibition measured after 24 hrs by two-fold broth dilution method; format: functional; conditions: JM 109, 24 h
Aspergillus flavus = experiment: Antifungal activity against Aspergillus flavus ATCC 16870 assessed as growth inhibition measured after 24 hrs by two-fold broth dilution method; format: functional; conditions: ATCC 16870, 24 h
Bacillus spizizenii = experiment: Antibacterial activity against Bacillus subtilis ATCC 6633 assessed as growth inhibition measured after 24 hrs by two-fold broth dilution method; format: functional; conditions: ATCC 6633, 24 h
Staphylococcus aureus [4] = experiment: Antibacterial activity against Staphylococcus aureus ATCC 25923 assessed as growth inhibition measured after 24 hrs by two-fold broth dilution method; format: functional; conditions: ATCC 25923, 24 h
Candida albicans [5] = experiment: Antifungal activity against Candida albicans ATCC 76615 assessed as growth inhibition measured after 24 hrs by two-fold broth dilution method; format: functional; conditions: ATCC 76615, 24 h
Proteus vulgaris = experiment: Antibacterial activity against Bacillus proteus ATCC 8427 assessed as growth inhibition measured after 24 hrs by two-fold broth dilution method; format: functional; conditions: ATCC 8427, 24 h
Aspergillus fumigatus = experiment: Antifungal activity against Aspergillus fumigatus GIMCC 3.19 assessed as growth inhibition measured after 24 hrs by two-fold broth dilution method; format: functional; conditions: GIMCC 3.19, 24 h
Candida tropicalis = experiment: Inhibition of Candida tropicalis ATCC 750 chitin synthase at 300 ug/ml using UDP-GlcNAc as substrate relative to control

| SMILES | IC50 [1] [µM] | MIC (Candida albicans [2]) [µM] | MIC (Cryptococcus neoformans) [µM] | MIC (Pseudomonas aeruginosa) [µM] | MIC (Staphylococcus aureus [3]) [µM] | MIC (Escherichia coli) [µM] | MIC (Aspergillus flavus) [µM] | MIC (Bacillus spizizenii) [µM] | MIC (Staphylococcus aureus [4]) [µM] | MIC (Candida albicans [5]) [µM] | MIC (Proteus vulgaris) [µM] | MIC (Aspergillus fumigatus) [µM] | inhibition (Candida tropicalis) [%] |
| --- | --- | --- | --- | --- | --- | --- | --- | --- | --- | --- | --- | --- | --- |
| O=C(Nc1ccccc1Cl)[C@H](O)[C@@H](O)C(=O)N1CCC2(CCNC2=O)CC1 | 140 | 1290 (≈ 511 µg/mL) | 320 (≈ 127 µg/mL) | 320 (≈ 127 µg/mL) | 320 (≈ 127 µg/mL) | 320 (≈ 127 µg/mL) | 1290 (≈ 511 µg/mL) | 650 (≈ 257 µg/mL) | 160 (≈ 63.3 µg/mL) | 1290 (≈ 511 µg/mL) | 160 (≈ 63.3 µg/mL) | 320 (≈ 127 µg/mL) | 85.5 |
| O=C(Nc1ccc(F)cc1F)[C@H](O)[C@@H](O)C(=O)N1CCC2(CCNC2=O)CC1 | 290 | 320 (≈ 127 µg/mL) | 640 (≈ 254 µg/mL) | 320 (≈ 127 µg/mL) | 80 (≈ 31.8 µg/mL) | 320 (≈ 127 µg/mL) | 320 (≈ 127 µg/mL) | 160 (≈ 63.6 µg/mL) | 320 (≈ 127 µg/mL) | 640 (≈ 254 µg/mL) | 160 (≈ 63.6 µg/mL) | 80 (≈ 31.8 µg/mL) | 65.2 |
| O=C(Nc1cccc(Br)c1)[C@H](O)[C@@H](O)C(=O)N1CCC2(CCNC2=O)CC1 | 150 | 580 (≈ 255 µg/mL) | 290 (≈ 128 µg/mL) | 580 (≈ 255 µg/mL) | 290 (≈ 128 µg/mL) | 580 (≈ 255 µg/mL) | 280 (≈ 123 µg/mL) | 1160 (≈ 511 µg/mL) | 290 (≈ 128 µg/mL) | 290 (≈ 128 µg/mL) | 290 (≈ 128 µg/mL) | 1160 (≈ 511 µg/mL) | 79.4 |
| COc1cccc(NC(=O)[C@H](O)[C@@H](O)C(=O)N2CCC3(CCNC3=O)CC2)c1 |  | 650 (≈ 254 µg/mL) | 330 (≈ 129 µg/mL) | 650 (≈ 254 µg/mL) | 650 (≈ 254 µg/mL) | 650 (≈ 254 µg/mL) | 650 (≈ 254 µg/mL) | 330 (≈ 129 µg/mL) | 650 (≈ 254 µg/mL) | 160 (≈ 62.6 µg/mL) | 650 (≈ 254 µg/mL) | 330 (≈ 129 µg/mL) | 47.5 |
| Cc1ccc(NC(=O)[C@H](O)[C@@H](O)C(=O)N2CCC3(CCNC3=O)CC2)cc1 |  | 680 (≈ 255 µg/mL) | 340 (≈ 128 µg/mL) | 170 (≈ 63.8 µg/mL) | 340 (≈ 128 µg/mL) | 340 (≈ 128 µg/mL) | 170 (≈ 63.8 µg/mL) | 680 (≈ 255 µg/mL) | 170 (≈ 63.8 µg/mL) | 340 (≈ 128 µg/mL) | 680 (≈ 255 µg/mL) | 680 (≈ 255 µg/mL) | 48.7 |
| O=C(Nc1ccccc1)[C@H](O)[C@@H](O)C(=O)N1CCC2(CCNC2=O)CC1 |  | 710 (≈ 257 µg/mL) | 710 (≈ 257 µg/mL) | 710 (≈ 257 µg/mL) | 710 (≈ 257 µg/mL) | 710 (≈ 257 µg/mL) | 1420 (≈ 513 µg/mL) | 710 (≈ 257 µg/mL) | 1420 (≈ 513 µg/mL) | 710 (≈ 257 µg/mL) | 1420 (≈ 513 µg/mL) | 1420 (≈ 513 µg/mL) | 1.8 |
| O=C(Nc1ccc(F)cc1)[C@H](O)[C@@H](O)C(=O)N1CCC2(CCNC2=O)CC1 |  | 340 (≈ 129 µg/mL) | 670 (≈ 254 µg/mL) | 1350 (≈ 512 µg/mL) | 340 (≈ 129 µg/mL) | 670 (≈ 254 µg/mL) | 340 (≈ 129 µg/mL) | 340 (≈ 129 µg/mL) | 670 (≈ 254 µg/mL) | 340 (≈ 129 µg/mL) | 340 (≈ 129 µg/mL) | 340 (≈ 129 µg/mL) | 36.7 |
| O=C(Nc1cccc(C(F)(F)F)c1)[C@H](O)[C@@H](O)C(=O)N1CCC2(CCNC2=O)CC1 |  | 300 (≈ 129 µg/mL) | 70 (≈ 30.1 µg/mL) | 300 (≈ 129 µg/mL) | 300 (≈ 129 µg/mL) | 150 (≈ 64.4 µg/mL) | 60 (≈ 25.8 µg/mL) | 150 (≈ 64.4 µg/mL) | 300 (≈ 129 µg/mL) | 300 (≈ 129 µg/mL) | 150 (≈ 64.4 µg/mL) | 600 (≈ 258 µg/mL) | 47.1 |
| C[C@H]1COc2c(N3CCN(C)CC3)c(F)cc3c(=O)c(C(=O)O)cn1c23 [LEVOFLOXACIN] |  |  |  | 3 (≈ 1.08 µg/mL) | 11 (≈ 3.98 µg/mL) | 11 (≈ 3.98 µg/mL) |  | 11 (≈ 3.98 µg/mL) | 22 (≈ 7.95 µg/mL) |  | 5 (≈ 1.81 µg/mL) |  |  |
| O=C(Nc1ccc([N+](=O)[O-])cc1)[C@H](O)[C@@H](O)C(=O)N1CCC2(CCNC2=O)CC1 | 390 | 1260 (≈ 512 µg/mL) | 1260 (≈ 512 µg/mL) | 630 (≈ 256 µg/mL) | 630 (≈ 256 µg/mL) | 310 (≈ 126 µg/mL) | 1260 (≈ 512 µg/mL) | 1260 (≈ 512 µg/mL) | 160 (≈ 65 µg/mL) | 1260 (≈ 512 µg/mL) | 310 (≈ 126 µg/mL) | 310 (≈ 126 µg/mL) | 58.4 |
